From the supplement of paper PMC10307832

Assays:
Assay in all cases: relative viability (nuclei count vs DMSO), 5 days (fraction); higher = more cells survive
[1] = compound: C1=CC2=NC=CN=C2C=C1/C=C/3\C(=O)NC(=O)S3 + Cc1nc(NC(=O)N2CCC[C@H]2C(N)=O)sc1-c1ccnc(C(C)(C)C(F)(F)F)c1 [Alpelisib] (partner 2 µM)
In short: (§1)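 Cells from lung cancer lines were seeded into 1536-well plates and, one day later, dosed by pin tool. Treatments were either a single drug or a fixed dose of an anchor drug with five library-drug doses (not always all listed) in √10 steps. After 5 days, nuclei were stained in a one-step fixation (final 0.05% Triton X-100, 1% formaldehyde, 1 ug/ml Hoechst) and counted on 4× images, and relative viability is the treated-to-vehicle nuclei ratio, as the median of duplicate plates.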

[2] = compound: C1=CC2=NC=CN=C2C=C1/C=C/3\C(=O)NC(=O)S3 + Cc1nc(Nc2ncc(C(=O)Nc3c(C)cccc3Cl)s2)cc(N2CCN(CCO)CC2)n1 [Dasatinib] (partner 0.075 µM)
In short: as §1

BGJ398 + Foretinib = compound: CCN1CCN(c2ccc(Nc3cc(N(C)C(=O)Nc4c(Cl)c(OC)cc(OC)c4Cl)ncn3)cc2)CC1 [BGJ398] + COc1cc2c(Oc3ccc(NC(=O)C4(C(=O)Nc5ccc(F)cc5)CC4)cc3F)ccnc2cc1OCCCN1CCOCC1 [Foretinib] (partner 0.25 µM)
In short: as §1

BGJ398 + Crizotinib = compound: CCN1CCN(c2ccc(Nc3cc(N(C)C(=O)Nc4c(Cl)c(OC)cc(OC)c4Cl)ncn3)cc2)CC1 [BGJ398] + C[C@@H](Oc1cc(-c2cnn(C3CCNCC3)c2)cnc1N)c1c(Cl)ccc(F)c1Cl [Crizotinib] (partner 1 µM)
In short: as §1

Cell Line | relative viability ([1]; first compound 0.02 µM) | relative viability ([1]; first compound 0.06325 µM) | relative viability ([1]; first compound 0.2 µM) | relative viability ([1]; first compound 0.6325 µM) | relative viability ([1]; first compound 2 µM) | relative viability ([2]; first compound 0.02 µM) | relative viability ([2]; first compound 0.06325 µM) | relative viability ([2]; first compound 0.2 µM) | relative viability ([2]; first compound 0.6325 µM) | relative viability ([2]; first compound 2 µM) | relative viability (BGJ398 + Foretinib; first compound 0.01 µM) | relative viability (BGJ398 + Foretinib; first compound 0.03162 µM) | relative viability (BGJ398 + Foretinib; first compound 0.1 µM) | relative viability (BGJ398 + Foretinib; first compound 0.3162 µM) | relative viability (BGJ398 + Foretinib; first compound 1 µM) | relative viability (BGJ398 + Crizotinib; first compound 0.01 µM) | relative viability (BGJ398 + Crizotinib; first compound 0.03162 µM) | relative viability (BGJ398 + Crizotinib; first compound 0.1 µM) | relative viability (BGJ398 + Crizotinib; first compound 0.3162 µM) | relative viability (BGJ398 + Crizotinib; first compound 1 µM)
NCI-H2228 | 0.814 | 1.12 | 0.802 | 0.674 | 0.664 | 0.414 | 0.448 | 0.47 | 0.389 | 0.388 | 0.776 | 0.893 | 0.848 | 0.822 | 0.826 | 0.433 | 0.64 | 0.319 | 0.252 | 0.347
NCI-H2347 | 1.02 | 1.09 | 1.08 | 1.07 | 1.02 | 0.318 | 0.26 | 0.306 | 0.304 | 0.293 | 1.02 | 1.12 | 0.838 | 0.717 | 0.741 | 0.593 | 0.878 | 0.728 | 0.962 | 0.698
NCI-H2405 | 0.692 | 0.92 | 0.872 | 0.804 | 0.703 | 0.233 | 0.161 | 0.231 | 0.184 | 0.155 | 1.03 | 1.1 | 1.1 | 1.09 | 0.972 | 0.838 | 0.906 | 0.911 | 0.919 | 0.849
NCI-H3122 | 0.737 | 0.854 | 0.873 | 0.766 | 0.602 | 0.8 | 0.953 | 0.747 | 0.816 | 0.701 | 1.01 | 0.973 | 0.963 | 0.89 | 0.971 | 0.229 | 0.271 | 0.282 | 0.295 | 0.272
PC-3 [JPC-3] | 1.07 | 1.12 | 0.994 | 0.987 | 1.03 | 0.84 | 1.05 | 0.968 | 1.01 | 0.821 | 1.15 |  | 1.06 | 1 | 1.02 | 1.02 |  | 1.09 | 0.971 | 0.961
PC-14 | 0.959 | 0.973 | 0.932 | 0.894 | 0.863 | 0.287 | 0.207 | 0.301 | 0.265 | 0.238 | 0.905 | 0.618 | 1.02 | 0.802 | 1.03 | 0.925 | 0.883 | 0.859 | 0.937 | 0.898
RERF-LC-KJ | 0.633 | 0.816 | 0.832 | 0.786 | 0.788 | 0.621 | 0.911 | 0.933 | 0.654 | 0.66 | 0.912 | 0.899 | 0.961 | 0.911 | 0.851 | 0.807 | 0.928 | 0.852 | 0.871 | 0.788
SK-LU-1 | 1.01 | 1.5 | 1.21 | 1.05 | 0.968 | 0.196 | 0.196 | 0.2 | 0.19 | 0.0971 | 0.716 | 0.833 | 0.778 | 0.791 | 0.869 | 0.905 | 0.906 | 1.01 | 0.926 | 0.787
SK-MES-1 |  | 0.987 | 0.86 | 0.868 | 0.802 | 0.456 | 0.267 | 0.375 | 0.339 | 0.211 | 0.869 | 1.08 | 0.971 | 0.809 | 1.12 | 0.944 | 1.05 | 1 | 0.942 | 0.967
SW 1573 | 0.54 | 0.852 | 0.791 | 0.636 | 0.616 | 0.392 | 0.76 | 0.69 | 0.523 | 0.291 | 0.91 | 1.13 | 0.866 | 0.594 | 0.973 | 0.878 | 0.802 | 0.773 | 0.808 | 0.767
